As a reminder, the LD50 is the dose expected to kill half of the subjects tested. A higher LD50 goes with lower toxicity. By inhibition is commonly meant the percentage by which the read-out fell short of the control. Lower therefore signals a response near the control.

The subject of series [1] is human monocytic leukemia THP-1 cells. Put plainly: Morphological change associated with cellular differentiation. It is filed as cell-based. The note with it: 0.3 µg RA/ml, 72 hr incubation. The protocol:
The generally ovate form was retained when the cells were cultured in the absence of any free or liposomal retinoic acid.

Series [2] has as its system human monocytic cell line THP-1. Put plainly: Cell growth inhibition, 72 hr, 96 well microtiter plate. Format: cell-based. The settings on record: concentrations of less than 1 µg RA/ml, 72 hr at 37°C. The protocol:
(§1) Cells of the human monocytic cell line THP-1 and of the human histiocytic cell line U-937 were inoculated at about 20,000 cells per well in aliquots of eucaryotic cell culture medium contained in wells of a 96 well microtiter plate. The medium in various wells contained different amount of free RA or L-RA (DMPC:DMPG 7:3). The cells were incubated for 72 hr at 37°C and cell growth determined and compared to that of controls without any form of retinoic acid. […] At concentrations of less than 1 µg RA/ml, both preparations inhibited cell growth by over 90%.

Another series concerns CD1 mice. Kind of series: in vivo. The settings on record: for Number Animals with seizures / Number Animals alive (72 hr): CD1, mouse, in vivo, iv. The protocol:
(§2) The acute toxicity of free and liposomal all-trans retinoic acid was studied in CD1 mice. Free all-trans retinoic acid was prepared as an emulsion in normal saline containing 10% DMSO and 2% Tween 80 at a concentration of 3 to 5 mg/ml. Liposomal all-trans retinoic acid was prepared using a lipid:drug ratio of 15:1. The final concentration of all-trans retinoic acid in the liposomal preparation was 3 mg/ml. Empty liposomes of the same lipid composition (DMPC:DMPG 7:3) were also tested at doses equivalent to 80 mg/kg, 100 mg/kg, and 120 mg/kg of liposomal-all trans retinoic acid. Normal saline containing 10% DMSO and 2% Tween 80 was also tested as a control at a dose equivalent to 50 mg/kg of free all-trans retinoic acid. All drugs tested were injected intravenously via tail vein as a single bolus. The injected volumes of free and liposomal-all-trans retinoic acid were the same for each dose.

A further series in a line: in vivo. The settings on record: mouse, in vivo, iv. The protocol:
as §2

For series [3], the system named is human histiocytic cell line U-937. Put plainly: Cell growth inhibition, 72 hr, 96 well microtiter plate. The settings on record: retinoic acid concentration of about 10 ug/ml. It is filed as cell-based. The protocol: as §1
Cells of the human histiocytic cell line U-937 were distributed and cultured under the same conditions as the THP-1 cells in the prior experiment. […] It should be noted that the U-937 cells were almost completely growth-inhibited by L-RA at a retinoic acid concentration of about 10 ug/ml while this amount of free RA inhibited growth less than 50%.

The next series has as its system THP-1 cells. Kind of series: Tumor formation of in vitro treated THP-1 cells injected subcutaneously into mice. Format: in vivo. The settings on record: cells treated in vitro for 72 hours, injected subcutaneously into male mice.
Series [4] concerns human red blood cells (RBCs). Put plainly: In vitro lysis of human erythrocytes (hemoglobin release, optical density at 550 nm). Format: cell-based. The protocol:
Lysis of human red blood cells (RBCs) was quantitated by measuring the release of hemoglobin in the supernatants by observation of increases in optical density at 550 nanometers (nm), as described previously (Mehta, et al., Biochem. Biophys, Acta., Vol. 770-, pp 230-234 (1984). Free-RA dissolved in dimethyl formamide (DMFA), was added to the RBCs. Results with appropriate solvent controls, empty liposomes, and empty liposomes plus free-drug were also noted. Release of hemoglobin by hypotonic lysis of the same number of human RBCs by water was taken as a 100% positive control, while cells treated with PBS were taken as negative controls.
Preparations of L-RA comprising various lipids were incubated at a concentration of 20 microgram (µg) RA per ml with RBCs in PBS for 4 hr at 37°C.
A further experiment concerning the toxicity over time of free RA and L-RA (DMPC:DMPG-7:3) toward RBC was conducted. Human erythrocytes were incubated at 37°C in PBS with 10 ug/ml free RA or 120 ug/ml L-RA, and RBC lysis monitored over a period of 5 hr. […] When a similar manipulation was performed with L-RA (DMPC:DMPG(7:3)) at a RA concentration of 120 ug/ml, little RBC lysis occurred (e.g., less than 10% after […]).
A study was also conducted concerning the effects upon RBC lysis in 2 hr of free RA and L-RA (DMPC:DMPG(7:3)) at various concentrations. […]

For another series, the system named is tissue transglutaminase. Kind of series: Induction of tissue transglutaminase activity in THP-1 cells (marker for monocytic cell differentiation). It is filed as cell-based, human. The note with it: 0.3 µg/ml or 0.6 µg/ml, 24 hr.
In the next series the test system is M5076. Put plainly: In vitro sensitivity of M5076 cells to retinoic acid. Format: cell-based.

In the case of `CC1=C(/C=C/C(C)=C/C=C/C(C)=C/C(=O)O)C(C)(C)CCC1` [Free RA, all-trans retinoic acid], the “morphological appearance of THP-1 cells” value in series [1] is “more flattened and spread morphological appearance”. The “inhibition of THP-1 cell growth” value in series [2] was “over 90%”. Besides, the “Number Animals with seizures” value was 0/6 in the series on CD1 mice (10 mg/kg); 6/6 with CD1 mice (20 mg/kg); 6/6 in the series on CD1 mice (30 mg/kg); 3/3 in the series with CD1 mice (40 mg/kg); 3/3 in the series with CD1 mice (50 mg/kg). Further, the “Number Animals alive (72 hr)” value was 6/6 in the series on CD1 mice (10 mg/kg); 5/6 in the series with CD1 mice (20 mg/kg); 4/6 with CD1 mice (30 mg/kg); 0/3 in the series with CD1 mice (40 mg/kg); 0/3 with CD1 mice (50 mg/kg). Moreover, in the series with CD1 mice (i.v. single bolus, CD1 mice), the maximum non-toxic dose was found to be 10 mg/kg. The same compound showed an LD50 at 72 h in the series “in vivo” of 32 mg/kg. The compound also had an inhibition at 10 µg/mL in series [3] below 50%. Further, the “tumor development of treated THP-1 cells in mice” value in the series with THP-1 cells is given as “failed to develop into tumors”. Also, the “RBC lysis over time” value in [4] (10 ug/ml, 37°C in PBS, between about 1 hr and about 3 hr) is reported as “extensively lysed a large majority of the erythrocytes”. Moreover, the “RBC lysis in 2 hr as a function of concentration” value in [4] (between about 5 ug RA/ml and about 30 ug RA/ml, 2 hr) is “linearly increasing RBC lysis”. Moreover, the “tissue transglutaminase enzymic activity” value in the series with tissue transglutaminase was “increased levels of tissue transglutaminase enzymic activity”. Moreover, in the series on M5076, the “sensitivity of M5076 cell line in in vitro studies” value was “resistant”.
